# Assays:
# [1] = system: C2C12 cells; test: Effect of Lat-B on cytoskeleton reorganization / morphology of C2C12 cells (brightfield microscopy); type: cell-based
# Method: (§1) Difference in cytoskeleton reorganization of differentiated cells vs. undifferentiated ones was studied by treating cells with Latrunculin-B (Lat-B) (Abcam, ab144291). C2C12 cells grown in GM and the partially differentiated ones in DM were treated with 100 nM Lat-B in GM and DM, respectively, for 1 hr at D1 and microscopy was performed using inverted microscope in brightfield mode. Effect of cytoskeleton reorganization on detachment of the sheets was also studied by treating the cells with 50 and 100 nM of Lat-B in DM during the 24 hrs before delamination. Lat-B stock solution was prepared by dissolving 100 μg in 1 mL DMSO.
# [2] = system: C2C12 cells; test: Effect of Lat-B treatment during the 24 hrs before delamination on detachment / sheet formation; type: cell-based
# Method: In order to start the delamination process DM was replaced with acidic medium (medium A) (DM with 0.1% V/V acetic acid, final pH of ˜6) and samples were incubated for 5-10 min at 37° C. At this point that sheets started to delaminate the process was accelerated by gentle shaking of the well plate. Process could be accelerated by applying shear force using gentle pipetting of medium to the edges of the wells. Immediately after delamination was completed, medium A was replaced with basic medium (medium B, final pH of ˜8) (DM with 0.1% V/V 0.1 M sodium hydroxide in deionized water) in order to prevent samples from forming clumps. After 5 min of treatment with medium B, samples were transferred to neutral medium (medium N, pH of 7.4) (DM without any pH adjustment). In case of stacks, the required number of sheets, either 2 layers of cell sheets (double-layer constructs) or 4 layers (quadruple-layer constructs), were stacked on top of each other by simply dragging them using a tweezer and placing them on each other. This process was also performed in abundant amounts of medium B and after stacking was done, most of the media was aspirated to let the sheets settle down because of their weight for 5 more minutes and then extra medium N was added (FIG. 1B). Images of sheets were taken 1 hr after delamination/stacking and 24 hrs later using a stereomicroscope (Infinity Optical Systems). Diameter of the sheets was used using ImageJ at these time points to study effect of number of layers on shrinkage pattern of the constructs.
# as §1
# [3] = system: C2C12 cells; conditions: 100 nM in DM, Nowak et al. 2009; cited from earlier work
smiles,measurement,setting,value
"C/C1=C/C(=O)O[C@@H]2C[C@@H](CC[C@H](C)/C=C\CC1)O[C@@](O)([C@@H]1CSC(=O)N1)C2 [Lat-B, Latrunculin-B]",Morphology after 24 hr of treatment,"[1]; 50 nM Lat-B in DM, 24 hr (D1 to D2)",slightly round
same,Morphology during the first few hours,"[1]; 50 nM Lat-B in DM, first few hours (data not shown)",did not show significant changes in their morphology
same,Morphology of partially differentiated cells,"[1]; 100 nM Lat-B in DM, 1 hr at D1, partially differentiated C2C12",changed very fast to round cells and eventually they formed clumps of cells
same,Morphology after 24 hrs of treatment,"[1]; 100 nM Lat-B in DM, 24 hrs (D1 to D2)",regained their stretched morphology after 24 hrs of treatment but were still rounder compared to untreated cells
same,Morphology of undifferentiated cells,"[1]; 100 nM Lat-B in GM, 1 hr at D1, undifferentiated C2C12",only became slightly round
same,Delamination / sheet formation,[2]; 50 nM Lat-B in DM for 24 hrs before delamination,"started to delaminate, but the sheets were fragile and broke to smaller pieces"
same,Delamination / sheet formation,"[2]; 50 nM Lat-B in DM for 24 hrs before delamination, listed as Latrunculin-B",delaminated but were fragile
same,Delamination / sheet formation,[2]; 100 nM Lat-B in DM for 24 hrs before delamination,did not form sheets at all
same,Delamination / sheet formation,"[2]; 100 nM Lat-B in DM for 24 hrs before delamination, listed as Latrunculin-B",did not form continuous sheets
same,Fusion of C2C12 cells,[3],would not fuse to each other

# — US20230272345A1, “SELF-ASSEMBLED CELL SHEET CONSTRUCTS AND METHODS OF MAKING THEREOF” (Caro Meats Inc., priority 2020, published 2023)
